# Test results published in article PMC7468108 (Communications Biology, 2020).
# Key:
# hIAPP = target: T1, hIAPP (Homo sapiens, UniProt P10997); experiment: CD spectroscopy of hIAPP aggregated with the tested molecules; conditions: increasing doses up to 5-fold molar excess
# T1 construct: hIAPP is a 37-amino acid neuroendocrine peptide hormone; purchased Peptide 2.0 (USA)
# T1 sequence (P10997 34-70 limits assumed): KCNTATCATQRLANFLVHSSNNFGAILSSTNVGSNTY
# Procedure: CD analysis was performed also for hIAPP (Fig. 2f and Supplementary Fig. 5). […] With different degrees of effectiveness, the presence of all tested hybrid molecules caused a reduction of the intensity of the CD signal, indicating an overall lower of β-sheet content of hIAPP (Fig. 2f and Supplementary Fig. 5).
# (§1) The blank was subtracted from the acquired CD spectra. For the CD study in the presence of the tryptophan-galacosylamine molecules, the spectra of hybrid molecules were also recorded separately and subtracted from the respective sample spectra. The normalized data were plotted using Origin pro 2015 software.
# Aβ42 = target: T2, Aβ42 (Homo sapiens, UniProt P05067); experiment: Congo red birefringence of Aβ42 fibrils formed with the tested molecules; conditions: 5-fold excess of compound
# T2 construct: purchased rPeptide (USA)
# Source text: These fibrils also generated the amyloid specific gold-green birefringence upon staining with Congo red (Fig. 3, bottom panel and Supplementary Fig. 6)[74].
# [1] = target: T3, pre-formed fibrils of Aβ42 (Homo sapiens, UniProt P05067); experiment: CD spectroscopy of pre-formed Aβ42 fibrils with the tested molecules; conditions: Aβ42 (10 µM) : molecule 1:5
# T3 construct: purchased rPeptide (USA)
# Procedure: For efficient treatment of proteinopathies it may be advantageous to disassemble amyloid aggregates/fibrils which are usually already present at the time of diagnosis[75]–[77]. […] Then, various doses of the hybrid molecules were added to the pre-formed fibrils and the mixtures were incubated for additional 10 h. The process of disaggregation was monitored by ThT-binding assay, CD spectroscopy, TEM and Congo red staining (Fig. 5).
# as §1
# [2] = target: T4, pre-formed fibrils of hIAPP (Homo sapiens, UniProt P10997); experiment: TEM of pre-formed hIAPP fibrils with the tested molecules; conditions: 5-fold molar excess of compound
# T4 construct: hIAPP is a 37-amino acid neuroendocrine peptide hormone; purchased Peptide 2.0 (USA)
# T4 sequence (P10997 34-70 limits assumed): T1 sequence (P10997 34-70 limits assumed)
# Procedure: For efficient treatment of proteinopathies it may be advantageous to disassemble amyloid aggregates/fibrils which are usually already present at the time of diagnosis[75]–[77]. Therefore, the ability of the hybrid molecules to disrupt pre-formed fibrils of Aβ42 and hIAPP was examined. […] According to the ThT kinetic results, this time was sufficient to complete fibril formation (Fig. 2a, d). Then, various doses of the hybrid molecules were added to the pre-formed fibrils and the mixtures were incubated for additional 10 h. The process of disaggregation was monitored by ThT-binding assay, CD spectroscopy, TEM and Congo red staining (Fig. 5).
# Samples (10 µL) were placed for 2 min on 400-mesh copper grids covered with carbon-stabilized Formvar film (Electron Microscopy Sciences (EMS), Hatfield, PA). Excess fluid was removed, and grids were negatively stained with 2% uranyl acetate solution (10 µL) for 2 min. After excess fluid removal, the samples were visualized using a JEM-1400 TEM (JEOL), operated at 80 kV.
# T3 sequence (P05067 672-713 limits assumed): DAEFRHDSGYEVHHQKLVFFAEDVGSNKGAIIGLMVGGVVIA
# T2 sequence (P05067 672-713 limits assumed): as above
structure (smiles),measurement,setting,value
NC(Cc1c[nH]c2ccccc12)C(=O)NC(Cc1c[nH]c2ccccc12)C(=O)O (stereo not shown) [WW],"effect on hIAPP secondary structure (CD), in words",hIAPP,substantial effect
same,"Congo red birefringence of Aβ42, in words",Aβ42,intense gold-green birefringence
same,Normalized CD spectra,[1]; wave length 190.00,-73553.54
same,Normalized CD spectra,[1]; wave length 190.50,-15766.44
same,Normalized CD spectra,[1]; wave length 191.00,35958.05
same,Normalized CD spectra,[1]; wave length 191.50,81619.94
same,Normalized CD spectra,[1]; wave length 192.00,121219.23
same,Normalized CD spectra,[1]; wave length 192.50,154755.92
same,Normalized CD spectra,[1]; wave length 193.00,182230.00
same,Normalized CD spectra,[1]; wave length 193.50,203641.48
same,Normalized CD spectra,[1]; wave length 194.00,218990.36
same,Normalized CD spectra,[1]; wave length 194.50,228276.63
same,Normalized CD spectra,[1]; wave length 195.00,231500.30
same,Normalized CD spectra,[1]; wave length 195.50,225800.71
same,Normalized CD spectra,[1]; wave length 196.00,212602.53
same,Normalized CD spectra,[1]; wave length 196.50,192673.83
same,Normalized CD spectra,[1]; wave length 197.00,167389.33
same,Normalized CD spectra,[1]; wave length 197.50,138095.62
same,Normalized CD spectra,[1]; wave length 198.00,105620.63
same,Normalized CD spectra,[1]; wave length 198.50,71268.15
same,Normalized CD spectra,[1]; wave length 199.00,34612.79
same,Normalized CD spectra,[1]; wave length 199.50,-3059.42
same,Normalized CD spectra,[1]; wave length 200.00,-41012.41
same,Normalized CD spectra,[1]; wave length 200.50,-77900.86
same,Normalized CD spectra,[1]; wave length 201.00,-113482.60
same,Normalized CD spectra,[1]; wave length 201.50,-149046.90
same,Normalized CD spectra,[1]; wave length 202.00,-184972.48
same,Normalized CD spectra,[1]; wave length 202.50,-219485.50
same,Normalized CD spectra,[1]; wave length 203.00,-252839.40
same,Normalized CD spectra,[1]; wave length 203.50,-284772.39
same,Normalized CD spectra,[1]; wave length 204.00,-314917.56
same,Normalized CD spectra,[1]; wave length 204.50,-342821.04
same,Normalized CD spectra,[1]; wave length 205.00,-369216.74
same,Normalized CD spectra,[1]; wave length 205.50,-393550.37
same,Normalized CD spectra,[1]; wave length 206.00,-417348.83
same,Normalized CD spectra,[1]; wave length 206.50,-438915.06
same,Normalized CD spectra,[1]; wave length 207.00,-457557.09
same,Normalized CD spectra,[1]; wave length 207.50,-473195.60
same,Normalized CD spectra,[1]; wave length 208.00,-486009.60
same,Normalized CD spectra,[1]; wave length 208.50,-496658.21
same,Normalized CD spectra,[1]; wave length 209.00,-506978.42
same,Normalized CD spectra,[1]; wave length 209.50,-515749.12
same,Normalized CD spectra,[1]; wave length 210.00,-522740.26
same,Normalized CD spectra,[1]; wave length 210.50,-528398.60
same,Normalized CD spectra,[1]; wave length 211.00,-534227.02
same,Normalized CD spectra,[1]; wave length 211.50,-539337.45
same,Normalized CD spectra,[1]; wave length 212.00,-544717.07
same,Normalized CD spectra,[1]; wave length 212.50,-549064.94
same,Normalized CD spectra,[1]; wave length 213.00,-552893.06
same,Normalized CD spectra,[1]; wave length 232.00,-158822.48
same,Normalized CD spectra,[1]; wave length 232.50,-145896.86
same,Normalized CD spectra,[1]; wave length 233.00,-133288.90
same,Normalized CD spectra,[1]; wave length 233.50,-121276.73
same,Normalized CD spectra,[1]; wave length 234.00,-108420.01
same,Normalized CD spectra,[1]; wave length 234.50,-94402.20
same,Normalized CD spectra,[1]; wave length 235.00,-80851.94
same,Normalized CD spectra,[1]; wave length 235.50,-67553.80
same,Normalized CD spectra,[1]; wave length 236.00,-53046.10
same,Normalized CD spectra,[1]; wave length 236.50,-38359.94
same,Normalized CD spectra,[1]; wave length 237.00,-24169.94
same,Normalized CD spectra,[1]; wave length 237.50,-9295.33
same,Normalized CD spectra,[1]; wave length 238.00,4979.26
same,Normalized CD spectra,[1]; wave length 238.50,18805.26
same,Normalized CD spectra,[1]; wave length 239.00,32522.94
same,Normalized CD spectra,[1]; wave length 239.50,44912.46
same,Normalized CD spectra,[1]; wave length 240.00,56635.42
same,Normalized CD spectra,[1]; wave length 240.50,67013.51
same,Normalized CD spectra,[1]; wave length 241.00,74841.22
same,Normalized CD spectra,[1]; wave length 241.50,81258.78
same,Normalized CD spectra,[1]; wave length 242.00,86276.81
same,Normalized CD spectra,[1]; wave length 242.50,90384.02
same,Normalized CD spectra,[1]; wave length 243.00,92798.03
same,Normalized CD spectra,[1]; wave length 243.50,93594.35
same,Normalized CD spectra,[1]; wave length 244.00,93999.17
same,Normalized CD spectra,[1]; wave length 244.50,92992.13
same,Normalized CD spectra,[1]; wave length 245.00,90422.16
same,Normalized CD spectra,[1]; wave length 245.50,86663.60
same,Normalized CD spectra,[1]; wave length 246.00,82929.71
same,Normalized CD spectra,[1]; wave length 246.50,77838.15
same,Normalized CD spectra,[1]; wave length 247.00,72115.03
same,Normalized CD spectra,[1]; wave length 247.50,67454.01
same,Normalized CD spectra,[1]; wave length 248.00,62170.09
same,Normalized CD spectra,[1]; wave length 248.50,58159.55
same,Normalized CD spectra,[1]; wave length 249.00,54507.86
same,Normalized CD spectra,[1]; wave length 249.50,50774.14
same,Normalized CD spectra,[1]; wave length 250.00,48265.73
same,Normalized CD spectra,[1]; wave length 250.50,46578.32
same,Normalized CD spectra,[1]; wave length 251.00,45531.49
same,Normalized CD spectra,[1]; wave length 251.50,45968.11
same,Normalized CD spectra,[1]; wave length 252.00,46977.38
same,Normalized CD spectra,[1]; wave length 252.50,48862.26
same,Normalized CD spectra,[1]; wave length 253.00,50826.53
same,Normalized CD spectra,[1]; wave length 253.50,52698.23
same,Normalized CD spectra,[1]; wave length 254.00,54591.66
same,Normalized CD spectra,[1]; wave length 254.50,55574.45
same,Normalized CD spectra,[1]; wave length 255.00,55730.02
same,Normalized CD spectra,[1]; wave length 255.50,53034.53
same,Normalized CD spectra,[1]; wave length 256.00,49400.95
same,Normalized CD spectra,[1]; wave length 256.50,44829.26
same,Normalized CD spectra,[1]; wave length 257.00,39319.47
same,Normalized CD spectra,[1]; wave length 257.50,32871.59
same,Normalized CD spectra,[1]; wave length 258.00,25485.60
same,"pre-formed hIAPP fibrils by TEM, in words",[2],unchanged
